These results are taken from patent US5866576A, “Epoxide-containing compounds” (Cell Therapeutics, Inc., priority 1997, dated 1999).

Entries after “also recorded” stand apart in the source; their conditions may differ.

Data set [1] concerns normal human bone marrow stromal cells (MSC). In words: human bone marrow stromal cell (MSC) proliferation in response to PDGF BB and IL-1α. The format is cell-based. Conditions: Table III, PDGF BB 50 ng/ml and IL-1α 10 ng/ml. On the procedure: This example illustrates the effects of inventive compounds nos. 1114, 1413, 1560, 1565, 1594, 2518, 2548R, 2548S and 3503 as effective inhibitors of normal human bone marrow stromal cells (MSC) proliferation in response to Platelet Derived Growth Factor BB (PDGF B) and IL-1α (50 and 10 ng/ml, respectively).
MSC were obtained and malintained in exponential growth, released from a growth plate with trypsin and plated into 96 well tissue culture plates in the presence of Fibroblast Growth Factor (FGFβ) for 48 hours. Growth media were removed and the cells were washed once with serum free media. The cells were then incubated 20-24 hours in serum free media.
After incubation, inventive compounds were added to the cells at the appropriate concentration and then the cells again incubated for 1 hour. PDGF B and IL-1α were added to the cells along with 3H-thymidine and the cells again incubated for an additional 24 hours.
After 24 hours of incubation, the cells were then harvested to assess incorporation of ^3 H-thymidine into DNA (proliferation). From each harvested cell culture, an IC-50 for each inventive compound tested was determined. Therefore, a lower reported IC-50 value is indicatilve of greater activity of the invention compounds in inhibiting MSC proliferation. Table III illustrates IC-50 values (in μM) for invention compounds inhibiting MSC proliferation at very low concentrations of compound.

Data set [2] relates to thymocytes. In words: IL-2 (ConA co-stimulated) induced proliferation of thymocytes. It counts as cell-based, mice. The settings on record: Mus musculus, Thymocyte, 96 h; Table II; ConA 0.25 ug/ml / IL2 20 ng/ml, 4 days. On the procedure:
This example illustrates the effects of inventive compounds nos. 1105, 1114, 1413, 1439, 1594, 2518, 2548R, 2548S, 2562 and 3503 as effective inhibitors of IL-2 induced proliferation of thymocytes. Single cell suspensions of thymus gland cells obtained from 4-6 week old mice were prepared. Two-hundred thousand cells were plated into individual wells of flat-bottom 96-well plates in RPMI-1640-10% FCS medium. The invention compounds were then added to the wells at varying concentrations and the cells incubated for 1-2 hours at 37° C.
Following this pre-incubation a mixture of Concanavalin A (ConA) and Interleukin-2 (IL2) was added to the experimental wells at a final concentration of (0.25 ug/ml ConA)/(20 ng/ml IL2). Appropriate positive and negative controls were set up on each plate. Each variable was set up in quadruplicate.
The plates were incubated for 4 days at 37° C. in a humidified CO2 incubator. On day 4 the wells were pulsed with 1 μCi of tritiated thymidine(3H-TdR) and the plates incubated for an additional 4 hours. The plates were then harvested and the incorporation of 3H-TdR was determined in a liquid scintillation counter. From the CPM obtained from each experimental well an IC-50 for each inventive compound tested was determined. Therefore, a lower reported IC-50 value is indicative of greater inhibition of IL-2-induced proliferation of thymocytes. Table II illustrates IC-50 values (in μM) for inventive compounds inhibiting proliferation at very low concentrations of compound.

Data set [3] has as its system thymocytes. In words: murine thymocyte proliferation assay co-stimulated by ConA and IL-2 (FIGS. 7A-7E). The settings on record: Mus musculus. It counts as cell-based, Balb/C mice. From the text: This example illustrates dose response curves used to generate 50% inhibition concentrations (IC50) for inventive compounds nos. 1410, 1439, 1541, 1553, 1553S, 1560, 1565, 2548R, 2548S and 2562 in a murine thymocyte proliferation assay, co-stimulated by Concanavalin A (ConA) and interleukin-2 alpha (IL-2). ConA, used to activate the T-cell receptor (TCR), along with IL-2 co-stimulation, induces T-cell proliferation and differentiation. Thymuses, obtained from normal, female Balb/C mice, were dissociated and plated into 96-well plates at a density of 2×10^5 cells/well. ConA (0.25 mg/ml) and IL-2 (15 U/ml) were added to the wells. The cells were incubated for 4 days at 37° C. On day 4, the cells were pulsed with tritiated thymidine and incubated for an additional 4 hours. The amount of tritiated thymidine incorporated by the harvested cells was determined in a liquid scintillation counter. Doses of inventive compounds (shown in FIGS. 7A-7E) were added two hours prior to ConA and IL-2 activation. Background counts were less than 200 cpm. Results obtained, illustrate the ability of the inventive compounds to inhibit thymocyte proliferation and activation. In FIG. 7A, inventive compounds nos. […] FIG. 7B presents additional data for compound no. 1410 and 1553S in this assay. […] FIG. 7C reports assay results for inventive compounds nos. 1439, 1541, 1560 and 1565. […] FIGS. 7D and 7E illustrate assay results for inventive compounds nos. 1541, 1553, 1560 and 1565 (FIG. 7D) and 2562, […] (FIG. 7E). As is true of other inventive compounds tested, all these compounds represented in FIGS. 7D and 7E inhibit thymocyte proliferation. […] 1541, 1553, 1560, 1565, 2562, 2548R and 2548S, respectively.

The test system of data set [4] is lymph node cells. Put plainly: ovalbumin-induced proliferation in murine lymph cells (FIG. 13). It counts as cell-based, Balb/C mice. The settings on record: Mus musculus, OVA 200 μg/ml. From the text:
This example illustrates effects of the inventive compounds on ovalbumin-induced proliferation in murine lymph cells. Lymphnode cells contain a mixture of lymphoid cells: T-cells, B-cells and macrophages. Although proliferating cells in this assay are T-cells, the response obtained depends on type of antigen-presenting cell (e.g., macrophages) as well as elaboration of various immunoregulatory cytokines. Thus, this assay serves as a good model for T-cell mediated responses and as a valuable screening tool in identifying compounds useful in immunosuppressive therapeutic applications.
Murine T-cells proliferate in vitro in response to a soluble protein antigen if first primed with a corresponding antigen in vivo. This in vivo priming usually involves emulsifying the antigen in complete Freunds adjuvant and injecting this preparation into an appropriate site on a mouse. In this assay the antigen employed was chicken ovalbumin(OVA). Following emulsification in Freund's complete adjuvant, 50 μg of OVA were injected into both hind footpads of adult Balb/C mice. Fourteen days later the draining lymph nodes(popliteal) were removed and a single cell suspension was prepared in RPMI-1640 (10%FCS) medium. Two hundred thousand lymph node cells are then plated into wells of flat-bottom 96-well plates. Inventive compouds nos. 1410, 1553 (racemic), 1553(S), 1560 and 1565 were added to appropriate wells at various concentrations. OVA, at a final concentration of 200 μg/ml, was added to appropriate wells. Positive and negative controls were established on each plate, all assay variables being set up in quadruplicate.
The plates were incubated in a humidified, 5% CO2 incubator for 5 days. On the fifth day, 1 μCi of tritiated thymidine was added to each well and the plates were incubated for an additional 4 hours. The plates were harvested and the incorporation of 3H-TdR was determined in a liquid scintillation counter. The CPM data was then used to calculate experimental IC50 values for the compounds tested. Again, IC50 is defined as that concentration of compound resulting in 50% inhibition of 3H-TdR incorporation of the positive control.

The test system of data set [5] is hair follicles / skin of nu/nu (nude) mice. In words: hair growth stimulation in nude mice, topical, skin biopsies. It counts as in vivo. From the text:
This example illustrates the effects of inventive compound no. 1541 as hair growth stimulant in nude mice. In a procedure similar to that used in a commercial model for predicting human hair-growing ability of minoxidil, nu/nu (nude) mice were painted twice daily for 16 days on the right flank with compound no. 1541 using sterile applicators. Researches handled the mice under a laminar flow hood with applicator, wearing face mask and sterile gloves.
After 16 days, one mouse was sacrificed by cervical dislocation and skin biopsies taken from the treated areas of the shoulder/flank and the non-treated area of the dorsal pelvis (rump). Specimens were placed in 10% buffered formalin solution.
Six weeks following treatment, a second mouse was euthanatized and biopsied the same as previous mouse after 16 days.

For data set [6], the system named is murine splenocytes. In words: murine splenocyte proliferation co-stimulated by anti-mu and IL-4 (FIG. 11). It counts as cell-based. Conditions: Mus musculus, anti-mu / IL-4 12.5 ng/ml. The protocol: This example illustrates inhibitive effects of compounds nos. 1439, 1553S, 1560 and 1565 on murine splenocyte proliferation co-stimulated by anti-mu ([…]) and interleukin-4 (IL-4, 12.5 ng/ml). This in vitro assay, described above, is indicative of immune-suppressive/autoimmune treatment assay emphasizing humoral or B cell immune response. This assays are a predictive model for treatment or prevention of autoimmune diseases, such as diabetes, lupus, arthritis, and the like. The assay measures immunosuppressive activity of a drug at the B cell level. Spleens from adult mice contain immature B cells that express surface IgM. Cross-linking the surface IgM with an anti-mu antibody results in B cell proliferation. Additionally, this activation results in an increased expression of interleukin-4 receptors(IL-4R) on the surface of such cells. IL-4 acts as a growth factor for B cells and will increase the amount of proliferation induced by anti-mu.
A mixture of anti-mu and murine IL-4 is added to murine splenocytes to cause their proliferation. Mice spleens are obtained from adult mice and a single cell suspension is prepared in RPMI 1640 medium supplemented with 10% FCS. Cells (200,000) are plated into flat-bottomed wells and pre-incubated for 1-2 hours with various concentrations of inventive compound or PBS if it is a control. A mixture of anti-mu and murine is added to the wells at a final concentration of 5 μg/ml anti-mu and 12.5 ng/ml IL-4 and plates are incubated for three days. Proliferation is determined on the third day with a pulse of tritiated thymidine. The IC50 concentration of a particular drug is the concentration of drug that results in a 50% inhibition of the proliferation obtained from the positive control.

As to `C[C@@H](CCCn1c(=O)c2c(ncn2C)n(C)c1=O)CCC1OC1(C)C` (stereo partly drawn) [Compound 2548R, 1-(4-(R)-Methyl-7,8-oxido-8-methylnonyl)-3,7-dimethylxanthine], the half-maximal inhibitory concentration (IC50) (commonly the concentration at which inhibition is half-maximal) in data set [1] was 8.7 µM; in data set [2] it was 7.5 µM; in data set [3] (FIGS. 7D and 7E) it was 16 µM.

Regarding `Cn1c(=O)n(CCCCC2CO2)c(=O)c2c1ncn2COC(=O)C(C)(C)C` (centres unmarked) [Compound 1410], the results for the IC50 in data set [4], in data set [3] (FIG. 7A) and in data set [3] (FIG. 7B) were 55 µM, 68 µM and 62 µM, respectively.

Regarding `Cn1cnc2c1c(=O)n(CCCCCCCCCC1CO1)c(=O)n2C` (centres unmarked) [Compound 1594], the IC50 in data set [1] worked out at 14 µM; in data set [2] it was 8.5 µM.

For `Cn1cnc2c1c(=O)n(CCCCC1CO1)c(=O)n2C` (centres unmarked) [Compound 1541, 1-(5,6-Oxidohexyl)-3,7-dimethylxanthine], the “skin histology findings (inflammatory cells)” value in data set [5] (after 16 days, also a few in untreated areas) is reported as “mild accumulations of mixed inflammatory cells in the dermis”. The “hair/follicle findings six weeks following treatment” value in data set [5] (six weeks following treatment) is “confirmed hair loss; also recorded: slightly straighter superficial portions of follicles with less curling of hair shafts; also recorded: the subcutis contained active anagen bulbs located deeply in the subcutis”. For the same molecule, the “skin histology findings (acanthosis)” value in data set [5] (six weeks following treatment) is recorded as “slightly more acanthosis (epidermal hyperplasta) in treated areas”. Also, in data set [5] (topical, twice daily, 16 days, biopsy at 16 days), the “hair follicles and hair shafts in treated areas” value was “follicles in the treated areas had hair shafts which sometimes exit to the surface; also recorded: more normal appearing hair follicles than the untreated sections; also recorded: numerous hair shafts were seen exiting follicles in the treated sections”. Moreover, the IC50 was 70 µM in data set [3] (FIG. 7C); 57 µM in data set [3] (FIGS. 7D and 7E).

As to `C[C@H](CCCn1c(=O)c2c(ncn2C)n(C)c1=O)CCC1OC1(C)C` (stereo partly drawn) [Compound 2548S, 1-(4-(S)-Methyl-7,8-oxide-8-methylnonyl)-3,7-dimethylxanthine], the IC50 in data set [1] stood at 5.9 µM; in data set [2], 4.6 µM; in data set [3] (FIGS. 7D and 7E) it was 21 µM.

With `Cn1c(=O)n(CCCCC2CO2)c(=O)c2[nH]cnc21` (centres unmarked) [Compound 1439, 1-(5,6-Oxidohexyl)-3-methylxanthine], the IC50 is 31 µM in data set [6], 8 µM in data set [2] and under 25 µM in data set [3] (FIG. 7C).

In the case of `Cn1cnc2c1c(=O)n(CCCCCCCCCCCC1CO1)c(=O)n2C` (centres unmarked) [Compound 2562, 1-(12,13-Oxidotridecyl)-3,7-dimethylxanthine], the 50% inhibitory concentration (IC50) in data set [2] stood at 3.1 µM; in data set [3] (FIGS. 7D and 7E), 20 µM.

In data set [2], `O=C1c2ccccc2C(=O)N1CCCCCCCC1CO1` (centres unmarked) [Compound 1105, N-(8,9-Oxidononyl) phthalimide] registered an IC50 of 8.5 µM.

`C=CCCCCn1c(=O)c2c(ncn2C)n(C)c1=O` [Compound 1539, 1-(5-Hexenyl)-3,7-dimethylxanthine] yielded an IC50 in data set [1] of 18 µM.

Regarding `O=C1Cc2ccccc2C(=O)N1CCCCCCCCCC1CO1` (centres unmarked) [Compound 1114, N-(10,11-Oxidoundecyl) homophthalimide], the values for the IC50 in data set [1] and in data set [2] were 5.1 µM and 10 µM, respectively.

Consider `Cn1c(=O)n(CCCCCCCCCC2CO2)c(=O)c2[nH]cnc21` (centres unmarked) [Compound 1413, 1-(11,10-Oxidoundecyl)-3-methylxanthine], for which the values for the IC50 in data set [1] and in data set [2] were 3.7 µM and 7.7 µM, respectively.

In the case of `Cn1cnc2c1c(=O)n(CCCCCCC1CO1)c(=O)n2C` (racemic) [Compound 1553, 1-(7,8-Oxidooctyl)-3,7-dimethylxanthine], the IC50 was found to be 45 µM in data set [4]; 29 µM in data set [3] (FIGS. 7D and 7E).

As for `Cn1cnc2c1c(=O)n(CCCCCCCCCCCCC1CO1)c(=O)n2C` (centres unmarked) [Compound 3503, 1-(13,14-Oxidotetradecyl)-3,7-dimethylxanthine], the values for the IC50 in data set [1] and in data set [2] were 14 µM and 10 µM, respectively.
